The record followed here is US20240342166A1, “PHARMACEUTICAL COMPOSITION FOR PREVENTING OR TREATING TUMOR, AND USE THEREOF” (TIUMBIO CO., LTD., priority 2021, published 2024).

Test [1] relates to 4T1 cell lines (Murine breast cancer cells). In words: Breast cancer mouse model (Example 4). The following applies: Day 23 from the cell line inoculation date; Compound 1 50 mg/kg twice a day p.o.; anti-PD-1 or anti-CTLA-4 antibody 10 mg/kg every three days i.p. The format is in vivo. The source says: (§1) 60 female BALB/C mice, 6-8 weeks old, were purchased from Vital River Laboratories Research Model and Services Company.
The difference in tumor volumes was statistically analyzed using ANOVA and Tukey's multiple comparison test.

Test [2] relates to MBT2 cell lines (Murine bladder cancer cells). In words: Bladder cancer mouse model (Example 5). The following applies: tumor volume on Day 30 from the cell line inoculation date; responder = tumor volume less than 1/4 of 1,500 mm^3; Compound 1 alone 15 mg/kg twice a day, in combination 50 mg/kg twice a day p.o.; anti-PD-1 antibody 12.5 mg/kg twice a week i.p.
Procedure: C3H/HeN female mice, 7 weeks old, were purchased from OrientBio. 2.5×10^5 MBT2 cell lines (Murine bladder cancer cells) were injected subcutaneously into the right flank of each mouse to transplant a cancer cell line. The MBT2 cell line transplantation date was determined as Day 0, and the tumor volume was measured on Day 6.
A 0.9% physiological saline solution was prepared as a vehicle, and a mixed solution of an anti-PD-1 antibody (BioXCell) and PBS, and a mixed solution of Compound 1 and the vehicle were prepared as study drugs.
The mice selected in Example 5.1 were assigned to a control group, a group in which an anti-PD-1 antibody was administered, a group in which Compound 1 was administered, or a group in which Compound 1 was administered in combination with an anti-PD-1 antibody, respectively. Drugs were administered from Day 6 to Day 28 from the MBT2 cell line transplantation date.
The mouse tumor volume and weight were measured three times a week during the study period after the drug administration. The tumor volume was measured by the same method as the method for measuring the tumor volume in Example 1.1.2.
For test [3], the system named is human peripheral blood mononuclear cells (hPBMCs). In words: In vitro IFN-γ secretion in TGF-β-inhibited, anti-CD3/anti-CD28-stimulated hPBMCs (ELISA). It is filed as cell-based. The following applies: treated with anti-CD3 antibodies, anti-CD28 antibodies and TGF-β; stimulated for 72 hours; IFN-γ ELISA of supernatants. The method, then:
A 6-well plate was coated with anti-CD3 monoclonal antibodies (OKT3) at 4° C. overnight. Each well of the 6-well plate was suctioned with an antibody solution, and washed using PBS. hPBMCs were plated on the coated 6-well plate. In order to increase the reactivity of hPBMCs, culturing was performed for 5 days under the conditions of 37° C., 5% carbon dioxide humidification incubator. The hPBMCs cultured for 5 days were inoculated in a 96-well plate at a concentration of 1×10^5 cells/well. The hPBMCs inoculated in the 96-well plate were treated with lenvatinib or Compound 1 and the hPBMCs were incubated for 1 hour, then TGF-β was added thereto and the hPBMCs were cultured for 1 hour. […] After 72 hours, the supernatants were recovered and conventional IFN-γ ELISA was performed. The IFN-γ content generated for each group was measured. Data analysis was performed using Prism 5 (GraphPad Software, Inc.), and statistical analysis was performed using One-way ANOVA and Tukey's multiple comparison.

Test [4] has as its system WEHI-164 cell lines (Murine sarcoma cells). Put plainly: Sarcoma mouse model (Example 3). It is filed as in vivo. To be noted: Compound 1 50 mg/kg twice a day p.o. How it is done:
as §1
Drugs were administered from Day 7 to Day 23 from the WEHI-164 cell line transplantation date.
The difference in tumor volumes during the study period was statistically analyzed using one-tailed t-test, ANOVA and Tukey's multiple comparison test.

For test [5], the system named is CT26 cell lines (Murine colon cancer cells). Put plainly: Colorectal cancer mouse model (Example 2). To be noted: Day 26 from the drug administration date; groups without anti-CTLA-4 antibody; Compound 1 50 mg/kg twice a day p.o.; anti-PD-1 antibody 10 mg/kg once every three days i.p.; lenvatinib 10 mg/kg p.o. It is filed as in vivo. The method, then:
170 female BALB/C mice, which were 6-8 weeks old, were purchased from OrientBio, and cancer cell lines were transplanted by subcutaneously injecting 7.5×10^5 CT26 cell lines (Murine colon cancer cells) into the right flank of each mouse.
The mice selected in Example 2.1 were assigned to the groups listed in Table 4 below, and vehicles or drugs were administered, and drug administration was initiated on Day 7 from the cell line inoculation date, and the study was terminated on Day 27 from the drug administration date.
In this case, the mouse tumor volume was calculated by the same method as the tumor volume calculation method of Example 1.1.2.
Tumor volume changes and weight changes for each group were statistically analyzed using Two-way ANOVA test, Bonferroni test, and one-tailed t-test.

For a further test, the system named is B16F10 cell lines. Put plainly: Melanoma mouse model, anti-PD-1 antibody and Compound 1 (Example 1.1). It is filed as in vivo. To be noted: Day 15 from the drug administration date; C57BL/6 mice; Compound 1 50 mg/kg twice a day p.o.; anti-PD-1 antibody 10 mg/kg once every three days i.p. The source says:
40 female C57BL/6 mice, which were 6-8 weeks old, were purchased from OrientBio, and 1×10^6 B16F10 cell lines (KCLB, #80008) were subcutaneously injected into the right flank of each mouse, thereby transplanting the cancer cell lines thereto.
The mice were classified according to the mean and deviation of the tumor volume on Day 9.
A change in tumor volume for each group was statistically analyzed using Two-way ANOVA test.

SMILES strings stand for the structures.

On to `Cc1cccc(-c2nc3n(c2-c2ccc4ncnn4c2)CCN3)n1.O=P(O)(O)O` [Compound 1, 6-(6-(6-methylpyridine-2-yl)-2,3-dihydro-1H-imidazo[1,2-a]imidazol-5-yl)-[1,2,4]triazole[1,5-a]pyridine phosphate], for which, in test [1], the “tumor volume reduced compared to the tumor volume of the control group” value amounted to 16%. Also, in test [2], the “Response individual ratio (percent)” value is on record as 9% and the “Response individual ratio (responders/mice)” value was 1/11. Further, the “secretion of IFNγ in human PBMCs” value in test [3] is reported as “increased secretion of IFNγ”. In test [4] (anti-CTLA-4 antibody 10 mg/kg once a week i.p., compared to the vehicle control group), the “complete remission rate of the tumor” value was 30%. Also, in test [4] (Day 16 from the drug administration initiation date, anti-PD-1 antibody 10 mg/kg once a week i.p.), the “tumor volume smaller than the tumor volume of the control group” value is given as 71%. Besides, in test [5], the “drop in tumor volume compared to the tumor volume of the control group (vehicle)” value stood at 59%. Also, the “tumor volume lower than the tumor volume measured in the control group” value in the test with B16F10 cell lines was found to be 44%.

For `COc1cc2nccc(Oc3ccc(NC(=O)NC4CC4)c(Cl)c3)c2cc1C(N)=O` [lenvatinib, reference compound], the “secretion of IFNγ in human PBMCs” value in test [3] was “increased secretion of IFNγ”. Besides, the “drop in tumor volume compared to the tumor volume of the control group (vehicle)” value in test [5] is reported as 30%.
